Source: US12358948B2, “Neurotensinergic agonists and methods of using same preventing or treating pain” (priority 2019, dated 2025)
*1 amine or outer side, *2 acyl side, *3 side chain or, on linkers, in order; H or OH if unused. Where a SMILES comes first, the peptide text is derived from it. Bridges are numbered along the chain shown (N, C = ends). [ ]: non-standard residue; d: D form. ξ: configuration not given here. ξαMeNle(6-ylidene) = CC(CCCC=[*:3])(N[*:1])C(=O)[*:2]; Ala(cHept) = N[C@@H](CC1CCCCCC1)C(=O)O; Phe(4-F) = N[C@@H](Cc1ccc(F)cc1)C(=O)O; Phe(4-I) = N[C@@H](Cc1ccc(I)cc1)C(=O)O; AllylGly = C=CC[C@H](N)C(=O)O; R5 = C=CCCC[C@@](C)(N)C(=O)O; S5 = C=CCCC[C@](C)(N)C(=O)O; Nle = CCCC[C@H](N)C(=O)O; Orn = NCCC[C@H](N)C(=O)O; Dab = NCC[C@H](N)C(=O)O; Nva = CCC[C@H](N)C(=O)O; Dap = NC[C@H](N)C(=O)O

Key:
hNTS1 receptor = target: T1, hNTS1 receptor (Homo sapiens, UniProt P30989); assay: Competitive radioligand binding assay on the hNTS1 receptor; conditions: displacement of 125I-[Tyr3]-NT, membranes of CHO-K1 cells expressing hNTS1; read-out: IC50 NTS1
T1 construct: membranes prepared from them
Experimental: (§1) CHO-K1 (Chinese Hamster Ovary) cells stably expressing hNTS1 and 1321N1 cells stably expressing hNTS2 (ES-690-C and ES-691-C from PerkinElmer, Montréal, Canada) were cultured respectively in Ham's F12 and in DMEM culture media. Culture media were supplemented with 10% FBS, 100 U/mL penicillin, 100 μg/mL streptomycin, 20 mM HEPES, and 0.4 mg/mL G418 at 37° C. in a humidified chamber at 5% CO2.
(§2) The cells expressing hNTS1 were frozen when they reached 80% confluency. They were scrapped off the dish with 10 mM Tris buffer, 1 mM EDTA, pH 7.5 and centrifuged at 15,000 g for 5 min at 4° C. The pellet was then re-suspended in 1 mL binding buffer. The cells expressing hNTS2 were also frozen when they reached 80% confluency. They were scraped off the dish with PBS, 0.5 mM EDTA, pH 7.5 and sonicated for 5 minutes (pulse 30 s/5 s off, amplitude 40%). They were ultracentrifuged at 100 000 g for 60 minutes at 4° C. The pellet was re-suspended in 1 mL freezing buffer (PBS, glycerol, 0.5 mM EDTA), sonicated for 1 minute (pulse 30 s/5 s off, amplitude 50%) and further diluted in binding buffer. Competitive radioligand binding experiments were performed by incubating 15 μg of cell membranes expressing the hNTS1 receptor with […] of ^125I-[Tyr^3]-NT (2200 Ci/mmol) or 50 μg of cell membranes expressing the hNTS2 receptor with […] of ^125I-[Tyr^3]-NT in binding buffer (50 mM Tris-HCl, pH 7.5, 0.2% BSA) in the presence of increasing concentrations of analogues ranging from 10^−11 to 10^−4 M for 60 min at 25° C. After incubation, the binding reaction mixture was transferred in PEI-coated 96-well filter plates (glass fiber filters GF/B, Millipore, Billerica, MA). Reaction was terminated by filtration, and plates were washed three times with 200 μL ice-cold binding buffer. Glass filters were then counted using a γ-counter (2470 Wizard2, PerkinElmer, Mississauga, Ontario, Canada). Non-specific binding was measured in the presence of 10^−5 M unlabeled NT (8-13) and represented less than 5% of total binding. IC50 values were determined from competition curves as the unlabeled ligand concentration inhibiting 50% of ^125I-[Tyr^3]-NT-specific binding.
(§3) Competitive radioligand binding data were plotted using the nonlinear regression One-site-Fit Log(IC50) and represented the mean±SEM of at least three independent experiments in triplicates.

hNTS2 receptor = target: T2, hNTS2 receptor (Homo sapiens, UniProt O95665); assay: Competitive radioligand binding assay on the hNTS2 receptor; conditions: for IC50: displacement of 125I-[Tyr3]-NT, membranes of 1321N1 cells expressing hNTS2, read-out: IC50 NTS2 (converted); for Selectivity: ratio IC50 for NTS1 : IC50 for NTS2
T2 construct: membranes prepared from them
Experimental: as §1, §2, §3

T1 sequence (P30989 whole entry): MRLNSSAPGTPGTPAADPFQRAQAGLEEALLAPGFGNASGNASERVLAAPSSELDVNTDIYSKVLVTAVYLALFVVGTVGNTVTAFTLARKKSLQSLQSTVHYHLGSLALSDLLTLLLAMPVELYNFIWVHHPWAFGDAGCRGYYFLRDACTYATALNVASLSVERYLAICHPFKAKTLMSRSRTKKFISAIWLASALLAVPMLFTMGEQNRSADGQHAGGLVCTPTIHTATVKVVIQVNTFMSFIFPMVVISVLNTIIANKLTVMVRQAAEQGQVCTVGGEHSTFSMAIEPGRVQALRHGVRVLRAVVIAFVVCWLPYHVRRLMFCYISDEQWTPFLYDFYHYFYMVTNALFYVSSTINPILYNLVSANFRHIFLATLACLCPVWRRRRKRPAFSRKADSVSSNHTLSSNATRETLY
T2 sequence (O95665 whole entry): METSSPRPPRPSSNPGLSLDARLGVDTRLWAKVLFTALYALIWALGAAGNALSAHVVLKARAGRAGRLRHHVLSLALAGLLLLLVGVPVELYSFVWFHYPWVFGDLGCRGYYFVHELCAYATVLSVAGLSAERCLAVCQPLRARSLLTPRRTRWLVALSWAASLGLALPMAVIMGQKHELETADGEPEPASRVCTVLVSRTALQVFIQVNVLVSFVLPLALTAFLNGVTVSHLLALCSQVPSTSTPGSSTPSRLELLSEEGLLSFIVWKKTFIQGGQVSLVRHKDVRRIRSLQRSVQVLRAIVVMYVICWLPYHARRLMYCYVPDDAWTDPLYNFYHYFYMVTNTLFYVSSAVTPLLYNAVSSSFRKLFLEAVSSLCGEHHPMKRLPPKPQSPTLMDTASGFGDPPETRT

Row | IC50 (hNTS1 receptor) | IC50 (hNTS2 receptor) | Selectivity (hNTS2 receptor) | SMILES
1 | > 100000 nM | 6.85 nM | >14 600 | NCCCC[C@@H]1NC(=O)[C@H](CCCCN)NC(=O)[C@@H](N)CC=CC[C@@H](C(=O)N[C@@H](Cc2ccc(O)cc2)C(=O)N[C@@H](CC2CCCCCC2)C(=O)O)NC1=O [compound 68, c[G(All)KKG(All)]YA(cycloheptyl)] (H-[AllylGly]KK[AllylGly]Y[Ala(cHept)]-OH; staple 1-4)
2 | > 100000 nM | 86.3 nM | >1159 | COc1ccc(C[C@H](NC(=O)[C@@H]2CC=CC[C@H](N)C(=O)N[C@@H](CCCCN)C(=O)N[C@@H](CCCCN)C(=O)N2)C(=O)N[C@@H](CC(C)C)C(=O)O)cc1 [compound 75, c[G(All)KKG(All)]Y(OMe)L] (H-[AllylGly]KK[AllylGly]Y(Me)L-OH; staple 1-4)
3 | > 100000 nM | 85.1 nM | >1175 | CC(C)C[C@H](NC(=O)[C@H](Cc1ccccc1)NC(=O)[C@@H]1CC=CC[C@H](N)C(=O)N[C@@H](CCCCN)C(=O)N[C@@H](CCCCN)C(=O)N1)C(=O)O [compound 76, c[G(All)KKG(All)FL] (H-[AllylGly]KK[AllylGly]FL-OH; staple 1-4)
4 | > 100000 nM | 95.6 nM | >1046 | CC(C)C[C@H](NC(=O)[C@H](Cc1ccc(F)cc1)NC(=O)[C@@H]1CC=CC[C@H](N)C(=O)N[C@@H](CCCCN)C(=O)N[C@@H](CCCCN)C(=O)N1)C(=O)O [compound 77, c[G(All)KKG(All)]F(4-fluoro)L] (H-[AllylGly]KK[AllylGly][Phe(4-F)]L-OH; staple 1-4)
5 | > 100000 nM | 15.5 nM | >6452 | CC(C)C[C@H](NC(=O)[C@H](Cc1ccc(I)cc1)NC(=O)[C@@H]1CC=CC[C@H](N)C(=O)N[C@@H](CCCCN)C(=O)N[C@@H](CCCCN)C(=O)N1)C(=O)O [compound 78, c[G(All)KKG(All)]F(4-iodo)L] (H-[AllylGly]KK[AllylGly][Phe(4-I)]L-OH; staple 1-4)
6 | > 100000 nM | 77.5 nM | >1291 | CC(C)C[C@H](NC(=O)[C@H](Cc1ccc(O)cc1)NC(=O)[C@@H]1CC=CC[C@H](N)C(=O)N[C@@H](CCCN)C(=O)N[C@@H](CCCCN)C(=O)N1)C(=O)O [compound 79, c[G(All)OrnKG(All)]YL] (H-[AllylGly][Orn]K[AllylGly]YL-OH; staple 1-4)
7 | > 100000 nM | 137 nM | >729 | CC(C)C[C@H](NC(=O)[C@H](Cc1ccc(O)cc1)NC(=O)[C@@H]1CC=CC[C@H](N)C(=O)N[C@@H](CCN)C(=O)N[C@@H](CCCCN)C(=O)N1)C(=O)O [compound 80, c[G(All)DabKG(All)]YL] (H-[AllylGly][Dab]K[AllylGly]YL-OH; staple 1-4)
8 | > 100000 nM | 180 nM | >557.2 | CC(C)C[C@H](NC(=O)[C@H](Cc1ccc(O)cc1)NC(=O)[C@@H]1CC=CC[C@H](N)C(=O)N[C@@H](CN)C(=O)N[C@@H](CCCCN)C(=O)N1)C(=O)O [compound 81, c[G(All)DapKG(All)]YL] (H-[AllylGly][Dap]K[AllylGly]YL-OH; staple 1-4)
9 | > 100000 nM | 621 nM | >161 | CC(C)C[C@H](NC(=O)[C@H](Cc1ccc(O)cc1)NC(=O)[C@@H]1CC=CC[C@H](N)C(=O)N[C@H](CCCCN)C(=O)N[C@@H](CCCCN)C(=O)N1)C(=O)O [compound 82, c[G(All)K*KG(All)]YL] (H-[AllylGly][dK]K[AllylGly]YL-OH; staple 1-4)
10 | > 100000 nM | 1320 nM | >76 | CC(C)C[C@H](NC(=O)[C@H](Cc1ccc(O)cc1)NC(=O)[C@@H]1CC=CC[C@H](N)C(=O)N[C@@H](Cc2c[nH]cn2)C(=O)N[C@@H](CCCCN)C(=O)N1)C(=O)O [compound 83, c[G(All)HKG(All)]YL] (H-[AllylGly]HK[AllylGly]YL-OH; staple 1-4)
11 | > 100000 nM | 646 nM | >154.9 | CC(C)C[C@H](NC(=O)[C@H](Cc1ccc(O)cc1)NC(=O)[C@@H]1CC=CC[C@H](N)C(=O)N[C@H](Cc2c[nH]cn2)C(=O)N[C@@H](CCCCN)C(=O)N1)C(=O)O [compound 84, c[G(All)H*KG(All)]YL] (H-[AllylGly][dH]K[AllylGly]YL-OH; staple 1-4)
12 | > 100000 nM | 1070 nM | >93 | CCCC[C@@H]1NC(=O)[C@@H](N)CC=CC[C@@H](C(=O)N[C@@H](Cc2ccc(O)cc2)C(=O)N[C@@H](CC(C)C)C(=O)O)NC(=O)[C@H](CCCCN)NC1=O [compound 85, c[G(All)NleKG(All)]YL] (H-[AllylGly][Nle]K[AllylGly]YL-OH; staple 1-4)
13 | > 100000 nM | 743 nM | >135 | CCC[C@@H]1NC(=O)[C@@H](N)CC=CC[C@@H](C(=O)N[C@@H](Cc2ccc(O)cc2)C(=O)N[C@@H](CC(C)C)C(=O)O)NC(=O)[C@H](CCCCN)NC1=O [compound 86, c[G(All)NvaKG(All)]YL] (H-[AllylGly][Nva]K[AllylGly]YL-OH; staple 1-4)
14 | > 100000 nM | 516 nM | >194 | CC(C)C[C@H](NC(=O)[C@H](Cc1ccc(O)cc1)NC(=O)[C@@H]1CC=CC[C@H](N)C(=O)NCC(=O)N[C@@H](CCCCN)C(=O)N1)C(=O)O [compound 87, c[G(All)GKG(All)]YL] (H-[AllylGly]GK[AllylGly]YL-OH; staple 1-4)
15 | > 100000 nM | 10600 nM | >9.4 | CC(C)C[C@H](NC(=O)[C@H](Cc1ccc(O)cc1)NC(=O)[C@@H]1CC=CC[C@H](N)C(=O)N[C@@H](CCC(=O)O)C(=O)N[C@@H](CCCCN)C(=O)N1)C(=O)O [compound 88, c[G(All)EKG(All)]YL] (H-[AllylGly]EK[AllylGly]YL-OH; staple 1-4)
16 | > 100000 nM | 13.2 nM | >7553 | CC(C)C[C@H](NC(=O)[C@H](Cc1ccc(O)cc1)NC(=O)[C@@H]1CC=CCCC[C@](C)(N)C(=O)N[C@@H](CCCCN)C(=O)N[C@@H](CCCCN)C(=O)N1)C(=O)O [compound 89, c[G(alpha-Me-(4-Pentenyl))KKG(All)]YL] (H-[S5]KK[AllylGly]YL-OH; staple 1-4)
17 | > 100000 nM | 76.9 nM | >1300 | CC(C)C[C@H](NC(=O)[C@H](Cc1ccc(O)cc1)NC(=O)[C@@H]1CC=CCCC[C@@](C)(N)C(=O)N[C@@H](CCCCN)C(=O)N[C@@H](CCCCN)C(=O)N1)C(=O)O [compound 90, c[G*(alpha-Me-(4-Pentenyl))KKG(All)]YL] (H-[R5]KK[AllylGly]YL-OH; staple 1-4)
18 | > 100000 nM | 34.4 nM | >2907 | CC(C)C[C@H](NC(=O)[C@H](Cc1ccc(O)cc1)NC(=O)C1(C)CCCC=CCCCC(C)(N)C(=O)N[C@@H](CCCCN)C(=O)N[C@@H](CCCCN)C(=O)N1)C(=O)O (stereo partly drawn) [compound 93, c[G(alpha-Me-(4-Pentenyl))KKG*(alpha-Me(4-Pentenyl))]YL] (H-[ξαMeNle(6-ylidene)]KK[ξαMeNle(6-ylidene)]YL-OH; staple 1-4)
19 | > 100000 nM | 22800 nM | >4.4 | CC(C)C[C@H](NC(=O)[C@H](Cc1ccc(O)cc1)NC(=O)[C@@H]1CC(=O)NC[C@H](N)C(=O)N[C@@H](CCCCN)C(=O)N[C@@H](CCCCN)C(=O)N1)C(=O)O [compound 94, c[DapKKD]YL] (H-[Dap]KKDYL-OH; lactam 1-4)
